Species on record: Rattus norvegicus
Assay: DrugMatrix - Regimen: Daily Repeat
Type: toxicity, organism-based, Sprague-Dawley
Set-up: regimen Daily Repeat, gender Male, age 6-8 weeks
Settings: in vivo, po, route oral GAVAGE, […]; for ABSOLUTE BASOPHIL / ABSOLUTE EOSINOPHIL / ABSOLUTE LYMPHOCYTE / ABSOLUTE MONOCYTE / ABSOLUTE SEGMENTED NEUTROPHIL / BASOPHIL / EOSINOPHIL / ERYTHROCYTE COUNT / HEMATOCRIT / HEMOGLOBIN / LEUKOCYTE COUNT / LYMPHOCYTE / MEAN CORPUSCULAR HEMOGLOBIN / MEAN CORPUSCULAR HEMOGLOBIN CONCENTRATION / MEAN CORPUSCULAR VOLUME / MONOCYTE / NEUTROPHIL / NUCLEATED RED BLOOD CELLS / PLATELET COUNT: tissue Blood; for ALANINE AMINOTRANSFERASE / ALBUMIN / ALKALINE PHOSPHATASE / ASPARTATE AMINOTRANSFERASE / BLOOD UREA NITROGEN / CARBON DIOXIDE / CHLORIDE / CHOLESTEROL / CREATINE PHOSPHOKINASE / CREATININE / GLUCOSE / LACTATE DEHYDROGENASE / LIPASE / PHOSPHORUS / POTASSIUM / SODIUM / TOTAL BILIRUBIN / TOTAL PROTEIN / URIC ACID: tissue Plasma
[1] = 0 mg/kg, 72 h, dose level Control, time 3 day
[2] = 0 mg/kg, 120 h, dose level Control, time 5 day
[3] = 59 mg/kg, 72 h, dose level Low, time 3 day
[4] = 59 mg/kg, 120 h, dose level Low, time 5 day

## Oc1c(Cl)cc(Cl)cc1Sc1cc(Cl)cc(Cl)c1O [BITHIONOL]
[1]
  ABSOLUTE BASOPHIL: 0 CELLS/uL
  ABSOLUTE EOSINOPHIL: 33 CELLS/uL
  ABSOLUTE LYMPHOCYTE: 9048.5 CELLS/uL
  ABSOLUTE MONOCYTE: 80.17 CELLS/uL
  ABSOLUTE SEGMENTED NEUTROPHIL: 1521.67 CELLS/uL
  BASOPHIL: 0%
  EOSINOPHIL: 0.17%
  ERYTHROCYTE COUNT: 5.46 x10E6/uL
  HEMATOCRIT: 32.87%
  HEMOGLOBIN: 12.95 G/DL
  LEUKOCYTE COUNT: 10.68 x10E3/uL
  LYMPHOCYTE: 86.67%
  MEAN CORPUSCULAR HEMOGLOBIN: 23.72 pg
  MEAN CORPUSCULAR HEMOGLOBIN CONCENTRATION: 39.4 G/DL
  MEAN CORPUSCULAR VOLUME: 60.18 fL
  MONOCYTE: 0.83%
  NEUTROPHIL: 12.33%
  NUCLEATED RED BLOOD CELLS: 0 /100WBC
  PLATELET COUNT: 1211.33 x10E3/uL
  ALANINE AMINOTRANSFERASE: 76.67 u/L
  ALBUMIN: 3.93 G/DL
  ALKALINE PHOSPHATASE: 317.17 u/L
  ASPARTATE AMINOTRANSFERASE: 81.17 u/L
  BLOOD UREA NITROGEN: 12.33 mg/dL
  CARBON DIOXIDE: 31.17 mmol/L
  CHLORIDE: 98.33 MEQ/L
  CHOLESTEROL: 67.17 mg/dL
  CREATINE PHOSPHOKINASE: 312.33 u/L
  CREATININE: 0.19 mg/dL
  GLUCOSE: 165.5 mg/dL
  LACTATE DEHYDROGENASE: 94.5 u/L
  LIPASE: 9.83 u/L
  PHOSPHORUS: 10.1 mg/dL
  POTASSIUM: 5.16 MEQ/L
  SODIUM: 143.02 MEQ/L
  TOTAL BILIRUBIN: 0.2 mg/dL
  TOTAL PROTEIN: 5.88 G/DL
  URIC ACID: 0.68 mg/dL
[2]
  ABSOLUTE BASOPHIL: 0 CELLS/uL
  ABSOLUTE EOSINOPHIL: 14.67 CELLS/uL
  ABSOLUTE LYMPHOCYTE: 9629.83 CELLS/uL
  ABSOLUTE MONOCYTE: 72.5 CELLS/uL
  ABSOLUTE SEGMENTED NEUTROPHIL: 1049.67 CELLS/uL
  BASOPHIL: 0%
  EOSINOPHIL: 0.17%
  ERYTHROCYTE COUNT: 5.36 x10E6/uL
  HEMATOCRIT: 33.82%
  HEMOGLOBIN: 13.48 G/DL
  LEUKOCYTE COUNT: 10.77 x10E3/uL
  LYMPHOCYTE: 90.17%
  MEAN CORPUSCULAR HEMOGLOBIN: 25.28 pg
  MEAN CORPUSCULAR HEMOGLOBIN CONCENTRATION: 39.92 G/DL
  MEAN CORPUSCULAR VOLUME: 63.3 fL
  MONOCYTE: 0.67%
  NEUTROPHIL: 9%
  NUCLEATED RED BLOOD CELLS: 0.17 /100WBC
  PLATELET COUNT: 1275.33 x10E3/uL
  ALANINE AMINOTRANSFERASE: 93.67 u/L
  ALBUMIN: 4.17 G/DL
  ALKALINE PHOSPHATASE: 402.5 u/L
  ASPARTATE AMINOTRANSFERASE: 122.83 u/L
  BLOOD UREA NITROGEN: 14.75 mg/dL
  CARBON DIOXIDE: 26.4 mmol/L
  CHLORIDE: 98.5 MEQ/L
  CHOLESTEROL: 57.5 mg/dL
  CREATINE PHOSPHOKINASE: 305.17 u/L
  CREATININE: 0.21 mg/dL
  GLUCOSE: 142 mg/dL
  LACTATE DEHYDROGENASE: 83.5 u/L
  LIPASE: 85.83 u/L
  PHOSPHORUS: 8.18 mg/dL
  POTASSIUM: 5.46 MEQ/L
  SODIUM: 144 MEQ/L
  TOTAL BILIRUBIN: 0.25 mg/dL
  TOTAL PROTEIN: 5.63 G/DL
  URIC ACID: 0.8 mg/dL
[3]
  ABSOLUTE BASOPHIL: 0 CELLS/uL
  ABSOLUTE EOSINOPHIL: 0 CELLS/uL
  ABSOLUTE LYMPHOCYTE: 6654 CELLS/uL
  ABSOLUTE MONOCYTE: 41.33 CELLS/uL
  ABSOLUTE SEGMENTED NEUTROPHIL: 671.33 CELLS/uL
  BASOPHIL: 0%
  EOSINOPHIL: 0%
  ERYTHROCYTE COUNT: 5.26 x10E6/uL
  HEMATOCRIT: 32.77%
  HEMOGLOBIN: 12.93 G/DL
  LEUKOCYTE COUNT: 7.37 x10E3/uL
  LYMPHOCYTE: 90%
  MEAN CORPUSCULAR HEMOGLOBIN: 24.57 pg
  MEAN CORPUSCULAR HEMOGLOBIN CONCENTRATION: 39.5 G/DL
  MEAN CORPUSCULAR VOLUME: 62.3 fL
  MONOCYTE: 0.67%
  NEUTROPHIL: 9.33%
  NUCLEATED RED BLOOD CELLS: 0 /100WBC
  PLATELET COUNT: 1231 x10E3/uL
  ALANINE AMINOTRANSFERASE: 78.67 u/L
  ALBUMIN: 4.07 G/DL
  ALKALINE PHOSPHATASE: 362 u/L
  ASPARTATE AMINOTRANSFERASE: 89.33 u/L
  BLOOD UREA NITROGEN: 13.67 mg/dL
  CARBON DIOXIDE: 31.67 mmol/L
  CHLORIDE: 98.67 MEQ/L
  CHOLESTEROL: 74.33 mg/dL
  CREATINE PHOSPHOKINASE: 365.67 u/L
  CREATININE: 0.18 mg/dL
  GLUCOSE: 157.67 mg/dL
  LACTATE DEHYDROGENASE: 123.67 u/L
  LIPASE: 10 u/L
  PHOSPHORUS: 11.23 mg/dL
  POTASSIUM: 6.04 MEQ/L
  SODIUM: 142.9 MEQ/L
  TOTAL BILIRUBIN: 0.17 mg/dL
  TOTAL PROTEIN: 5.97 G/DL
  URIC ACID: 0.6 mg/dL
[4]
  ABSOLUTE BASOPHIL: 0 CELLS/uL
  ABSOLUTE EOSINOPHIL: 30 CELLS/uL
  ABSOLUTE LYMPHOCYTE: 8041.67 CELLS/uL
  ABSOLUTE MONOCYTE: 31.33 CELLS/uL
  ABSOLUTE SEGMENTED NEUTROPHIL: 663.67 CELLS/uL
  BASOPHIL: 0%
  EOSINOPHIL: 0.33%
  ERYTHROCYTE COUNT: 5.55 x10E6/uL
  HEMATOCRIT: 33.6%
  HEMOGLOBIN: 13.2 G/DL
  LEUKOCYTE COUNT: 8.77 x10E3/uL
  LYMPHOCYTE: 91.67%
  MEAN CORPUSCULAR HEMOGLOBIN: 23.8 pg
  MEAN CORPUSCULAR HEMOGLOBIN CONCENTRATION: 39.27 G/DL
  MEAN CORPUSCULAR VOLUME: 60.53 fL
  MONOCYTE: 0.33%
  NEUTROPHIL: 7.67%
  NUCLEATED RED BLOOD CELLS: 0 /100WBC
  PLATELET COUNT: 933.33 x10E3/uL
  ALANINE AMINOTRANSFERASE: 82.33 u/L
  ALBUMIN: 4.23 G/DL
  ALKALINE PHOSPHATASE: 343.33 u/L
  ASPARTATE AMINOTRANSFERASE: 99.67 u/L
  BLOOD UREA NITROGEN: 14.67 mg/dL
  CARBON DIOXIDE: 27.67 mmol/L
  CHLORIDE: 102.33 MEQ/L
  CHOLESTEROL: 55.67 mg/dL
  CREATINE PHOSPHOKINASE: 348 u/L
  CREATININE: 0.19 mg/dL
  GLUCOSE: 150.67 mg/dL
  LACTATE DEHYDROGENASE: 104.67 u/L
  LIPASE: 19 u/L
  PHOSPHORUS: 9.53 mg/dL
  POTASSIUM: 5.41 MEQ/L
  SODIUM: 145.97 MEQ/L
  TOTAL BILIRUBIN: 0.23 mg/dL
  TOTAL PROTEIN: 5.97 G/DL
  URIC ACID: 0.9 mg/dL
